Experimental data published in patent publication US10681909B2, “Herbicidal triazoles” (FMC Corporation, priority 2014, dated 2020).

Columns and labels:
[1] = test system: bromegrass, down; assay: Test D postemergence; type: in vivo, Bromus tectorum; details: scale 0 to 100
Description: (§1) Seeds of plant species selected from bluegrass (annual bluegrass, Poa annua), blackgrass (Alopecurus myosuroides), canarygrass (Phalaris minor), chickweed (common chickweed, Stellaria media), galium (catchweed bedstraw, Galium aparine), bromegrass, down (downy bromegrass, Bromus tectorum), Russian thistle (Salsola kali), field poppy (Papaver rhoeas), field violet (Viola arvensis), foxtail, green (green foxtail, Setaria viridis), deadnettle (henbit deadnettle, Lamium amplexicaule), ryegrass, Ital. (Italian ryegrass, Lolium multiflorum), kochia (Kochia scoparia), lambsquarters (Chenopodium album), oilseed rape (Brassica napus), pigweed (Amaranthus retroflexus), chamomile (scentless chamomile, Matricaria inodora), speedwell (bird's-eye speedwell, Veronica persica), barley, spring (spring barley, Hordeum vulgare), wheat, spring (spring wheat, Triticum aestivum), buckwheat, wild (wild buckwheat, Polygonum convolvulus), wild mustard (Sinapis arvensis), oat, wild (wild oat, Avena fatua), radish, wild (wild radish, Raphanus raphanistrum), […]), barley, winter (winter barley, Hordeum vulgare), and wheat, winter (winter wheat, Triticum aestivum) were planted into a silt loam soil and treated preemergence with test chemicals formulated in a non-phytotoxic solvent mixture which included a surfactant. At the same time, these species were planted in pots containing Sunshine Redi-Earth® planting medium comprising spaghnum peat moss, vermiculite, starter nutrients and dolomitic limestone and treated with postemergence applications of the test chemicals formulated in the same manner. Plants ranged in height from 2 to 18 cm (1- to 4-leaf stage). Treated plants and controls were maintained in a controlled growth environment for 14 to 21 d after which time all species were compared to controls and visually evaluated. […] A dash (-) response means no test result.

[2] = test system: radish, wild; assay: Test D preemergence; type: in vivo, Raphanus raphanistrum; details: scale 0 to 100
Description: as §1

[3] = test system: radish, wild; assay: Test D postemergence; type: in vivo, Raphanus raphanistrum; details: scale 0 to 100
Description: as §1

[4] = test system: barley, spring; assay: Test D preemergence; type: in vivo, Hordeum vulgare; details: scale 0 to 100
Description: as §1

[5] = test system: barley, winter; assay: Test D preemergence; type: in vivo, Hordeum vulgare; details: scale 0 to 100
Description: as §1

[6] = test system: lambsquarters; assay: Test D postemergence; type: in vivo, Chenopodium album; details: scale 0 to 100
Description: as §1

[7] = test system: johnsongrass; assay: Test C preemergence; type: in vivo, Sorghum halepense; details: for Plant response rating (scale of 0 to 100 where 0 is no effect and 100 is complete control): Johnsongrass, preemergence; for Johnsongrass plant response rating (0 to 100): Preemergence, visual rating after 13 to 15 d
Description: (§2) Seeds of plant species selected from blackgrass (Alopecurus myosuroides), ryegrass, Italian (Italian ryegrass, Lolium multiflorum), wheat (winter wheat, Triticum aestivum), galium (catchweed bedstraw, Galium aparine), corn (Zea mays), crabgrass, large (large crabgrass, Digitaria sanguinalis), foxtail, giant, (giant foxtail, Setaria faberii), johnsongrass (Sorghum halepense), lambsquarters (Chenopodium album), morningglory (Ipomoea coccinea), nutsedge, yellow (yellow nutsedge, Cyperus esculentus), pigweed (Amaranthus retroflexus), ragweed (common ragweed, Ambrosia elatior), soybean (Glycine max), barnyardgrass (Echinochloa crus-galli), oilseed rape (Brassica napus), waterhemp (common waterhemp, Amaranthus rudis), and velvetleaf (Abutilon theophrasti) were planted into a blend of loam soil and sand and treated preemergence with test chemicals formulated in a non-phytotoxic solvent mixture which included a surfactant. At the same time, plants selected from these crop and weed species and also chickweed (common chickweed, Stellaria media), oat, wild (wild oat, Avena fatua), and kochia (Kochia scoparia), were planted in pots containing Sunshine Redi-Earth® planting medium comprising spaghnum peat moss, vermiculite, starter nutrients and dolomitic limestone and treated with postemergence applications of test chemicals formulated in the same manner. Plants ranged in height from 2 to 18 cm (1- to 4-leaf stage) for postemergence treatments. […] A dash (-) response means no test result.

[8] = test system: soybean; assay: Test C preemergence; type: in vivo, Glycine max; details: for Soybean plant response rating (0 to 100): Preemergence, visual rating after 13 to 15 d; for Plant response rating (scale of 0 to 100 where 0 is no effect and 100 is complete control): Soybean, preemergence, 250 g ai/ha
Description: as §2

[9] = test system: foxtail, giant; assay: Test C preemergence; type: in vivo, Setaria faberii; details: for Plant response rating (scale of 0 to 100 where 0 is no effect and 100 is complete control): Foxtail, Giant, preemergence; for Foxtail, Giant plant response rating (0 to 100): Preemergence, visual rating after 13 to 15 d
Description: as §2

[10] = test system: bromegrass, down; assay: Test D preemergence; type: in vivo, Bromus tectorum; details: scale 0 to 100
Description: as §1

[11] = test system: speedwell; assay: Test D preemergence; type: in vivo, Veronica persica; details: scale 0 to 100
Description: as §1

[12] = test system: galium; assay: Test A postemergence; type: in vivo, Galium aparine; details: 0 to 100 scale (0 no effect, 100 complete control), approx. 10 d
Description: Seeds of plant species selected from barnyardgrass (Echinochloa crus-galli), crabgrass, large (large crabgrass, Digitaria sanguinalis), kochia (Kochia scoparia), ragweed (common ragweed, Ambrosia elatior), foxtail, giant (giant foxtail, Setaria faberii), morningglory (Ipomoea spp.), pigweed (Amaranthus retroflexus), velvetleaf (Abutilon theophrasti), ryegrass, Italian (Italian ryegrass, Lolium multiflorum), wheat (Triticum aestivum), and corn (Zea mays) were planted into a blend of loam soil and sand and treated preemergence with a directed soil spray using test chemicals formulated in a non-phytotoxic solvent mixture which included a surfactant.
At the same time, plants selected from these crop and weed species and also blackgrass (Alopecurus myosuroides), and galium (catchweed bedstraw, Galium aparine), were planted in pots containing the same blend of loam soil and sand and treated with postemergence applications of test chemicals formulated in the same manner. Plants ranged in height from 2 to 10 cm and were in the one- to two-leaf stage for the postemergence treatment. Treated plants and untreated controls were maintained in a greenhouse for approximately 10 d, after which time all treated plants were compared to untreated controls and visually evaluated for injury. Plant response ratings, summarized in Table A, are based on a 0 to 100 scale where 0 is no effect and 100 is complete control. A dash (-) response means no test result.

CCOc1nc(-c2ccc(F)cc2)nn1Cc1ccnc(C(F)(F)F)c1 [Compound 8, 4-[[5-ethoxy-3-(4-fluorophenyl)-1H-1,2,4-triazol-1-yl]methyl]-2-(trifluoromethyl)pyridine]
Plant response rating: Bromegrass, Down ([1]; 31 g ai/ha): 35 | Plant response rating: Bromegrass, Down ([1]; 62 g ai/ha): 45 | Plant response rating: Bromegrass, Down ([1]; 125 g ai/ha): 55 | Plant response rating: Bromegrass, Down ([1]; 250 g ai/ha): 60 | Plant response rating: Radish, Wild ([2]; 62 g ai/ha): 60 | Plant response rating: Radish, Wild ([2]; 125 g ai/ha): 100 | Plant response rating: Radish, Wild ([2]; 250 g ai/ha): 100 | Plant response rating: Radish, Wild ([3]; 31 g ai/ha): 80 | Plant response rating: Radish, Wild ([3]; 62 g ai/ha): 100 | Plant response rating: Radish, Wild ([3]; 125 g ai/ha): 100 | Plant response rating: Radish, Wild ([3]; 250 g ai/ha): 100 | Plant response rating: Barley, Spring ([4]; 31 g ai/ha): 5 | Plant response rating: Barley, Spring ([4]; 62 g ai/ha): 20 | Plant response rating: Barley, Spring ([4]; 125 g ai/ha): 45 | Plant response rating: Barley, Spring ([4]; 250 g ai/ha): 60 | Plant response rating: Barley, Winter ([5]; 31 g ai/ha): 5 | Plant response rating: Barley, Winter ([5]; 62 g ai/ha): 25 | Plant response rating: Barley, Winter ([5]; 125 g ai/ha): 35 | Plant response rating: Barley, Winter ([5]; 250 g ai/ha): 45 | Plant response rating: Lambsquarters ([6]; 31 g ai/ha): 95 | Plant response rating: Lambsquarters ([6]; 62 g ai/ha): 95 | Plant response rating: Lambsquarters ([6]; 125 g ai/ha): 95 | Plant response rating: Lambsquarters ([6]; 250 g ai/ha): 90 | Plant response rating (scale of 0 to 100 where 0 is no effect and 100 is complete control) ([7]; 125 g ai/ha): 98 | Plant response rating (scale of 0 to 100 where 0 is no effect and 100 is complete control) ([7]; 250 g ai/ha): 100 | Johnsongrass plant response rating (0 to 100) ([7]; 31 g ai/ha): 85 | Johnsongrass plant response rating (0 to 100) ([7]; 62 g ai/ha): 98 | Soybean plant response rating (0 to 100) ([8]; 31 g ai/ha): 15 | Soybean plant response rating (0 to 100) ([8]; 62 g ai/ha): 35 | Plant response rating (scale of 0 to 100 where 0 is no effect and 100 is complete control) [8]: 75 | Plant response rating (scale of 0 to 100 where 0 is no effect and 100 is complete control) ([9]; 125 g ai/ha): 100 | Plant response rating (scale of 0 to 100 where 0 is no effect and 100 is complete control) ([9]; 250 g ai/ha): 100 | Foxtail, Giant plant response rating (0 to 100) ([9]; 31 g ai/ha): 100 | Foxtail, Giant plant response rating (0 to 100) ([9]; 62 g ai/ha): 100 | Plant response rating: Bromegrass, Down ([10]; 31 g ai/ha): 10 | Plant response rating: Bromegrass, Down ([10]; 62 g ai/ha): 35 | Plant response rating: Bromegrass, Down ([10]; 125 g ai/ha): 100 | Plant response rating: Bromegrass, Down ([10]; 250 g ai/ha): 100 | Plant response rating: Speedwell ([11]; 62 g ai/ha): 100 | Plant response rating: Speedwell ([11]; 125 g ai/ha): 100 | Plant response rating: Speedwell ([11]; 250 g ai/ha): 100

COc1nc(-c2ccc(F)cc2)nn1Cc1ccnc(C(F)(F)F)c1 [Compound 9, 4-[[3-(4-fluorophenyl)-5-methoxy-1H-1,2,4-triazol-1-yl]methyl]-2-(trifluoromethyl)pyridine]
Plant response rating (scale of 0 to 100 where 0 is no effect and 100 is complete control) ([7]; 125 g ai/ha): 65 | Plant response rating (scale of 0 to 100 where 0 is no effect and 100 is complete control) ([7]; 250 g ai/ha): 80 | Johnsongrass plant response rating (0 to 100) ([7]; 31 g ai/ha): 5 | Johnsongrass plant response rating (0 to 100) ([7]; 62 g ai/ha): 20 | Soybean plant response rating (0 to 100) ([8]; 31 g ai/ha): 0 | Soybean plant response rating (0 to 100) ([8]; 62 g ai/ha): 0 | Plant response rating (scale of 0 to 100 where 0 is no effect and 100 is complete control) [8]: 40 | Plant response rating (scale of 0 to 100 where 0 is no effect and 100 is complete control) ([9]; 125 g ai/ha): 100 | Plant response rating (scale of 0 to 100 where 0 is no effect and 100 is complete control) ([9]; 250 g ai/ha): 100 | Foxtail, Giant plant response rating (0 to 100) ([9]; 31 g ai/ha): 80 | Foxtail, Giant plant response rating (0 to 100) ([9]; 62 g ai/ha): 100

CCCc1nc(-c2ccc(F)cc2)nn1Cc1ccnc(C(F)(F)F)c1 [Compound 6, 4-[[3-(4-fluorophenyl)-5-propyl-1H-1,2,4-triazol-1-yl]methyl]-2-(trifluoromethyl)pyridine]
Plant response rating (scale of 0 to 100 where 0 is no effect and 100 is complete control) ([7]; 125 g ai/ha): 85 | Plant response rating (scale of 0 to 100 where 0 is no effect and 100 is complete control) ([7]; 250 g ai/ha): 100 | Johnsongrass plant response rating (0 to 100) ([7]; 31 g ai/ha): 60 | Johnsongrass plant response rating (0 to 100) ([7]; 62 g ai/ha): 75 | Soybean plant response rating (0 to 100) ([8]; 31 g ai/ha): 5 | Soybean plant response rating (0 to 100) ([8]; 62 g ai/ha): 5 | Plant response rating (scale of 0 to 100 where 0 is no effect and 100 is complete control) [8]: 70 | Plant response rating (scale of 0 to 100 where 0 is no effect and 100 is complete control) ([9]; 125 g ai/ha): 100 | Plant response rating (scale of 0 to 100 where 0 is no effect and 100 is complete control) ([9]; 250 g ai/ha): 100 | Foxtail, Giant plant response rating (0 to 100) ([9]; 31 g ai/ha): 100 | Foxtail, Giant plant response rating (0 to 100) ([9]; 62 g ai/ha): 100

COc1nc(-c2ccccc2)nn1Cc1ccnc(C(F)(F)F)c1 [Compound 32]
Plant response rating, Galium ([12]; 125 g ai/ha): 60 | Plant response rating, Galium ([12]; 500 g ai/ha): 90 | Plant response rating (scale of 0 to 100 where 0 is no effect and 100 is complete control) ([7]; 125 g ai/ha): 30 | Plant response rating (scale of 0 to 100 where 0 is no effect and 100 is complete control) ([7]; 250 g ai/ha): 60 | Johnsongrass plant response rating (0 to 100) ([7]; 31 g ai/ha): 0 | Johnsongrass plant response rating (0 to 100) ([7]; 62 g ai/ha): 0 | Soybean plant response rating (0 to 100) ([8]; 31 g ai/ha): 0 | Soybean plant response rating (0 to 100) ([8]; 62 g ai/ha): 0 | Plant response rating (scale of 0 to 100 where 0 is no effect and 100 is complete control) [8]: 5 | Plant response rating (scale of 0 to 100 where 0 is no effect and 100 is complete control) ([9]; 125 g ai/ha): 85 | Plant response rating (scale of 0 to 100 where 0 is no effect and 100 is complete control) ([9]; 250 g ai/ha): 100 | Foxtail, Giant plant response rating (0 to 100) ([9]; 31 g ai/ha): 5 | Foxtail, Giant plant response rating (0 to 100) ([9]; 62 g ai/ha): 70

CCOc1nc(-c2ccc(Cl)cc2)nn1Cc1ccnc(C(F)(F)F)c1 [Compound 26]
Plant response rating, Galium ([12]; 31 g ai/ha): 60 | Plant response rating, Galium ([12]; 125 g ai/ha): 90

COc1nc(-c2ccc(C(F)(F)F)cc2)nn1Cc1ccnc(C(F)(F)F)c1 [Compound 25]
Plant response rating, Galium ([12]; 31 g ai/ha): 60 | Plant response rating, Galium ([12]; 125 g ai/ha): 80

CCCOc1nc(-c2ccccc2)nn1Cc1ccnc(C(F)(F)F)c1 [Compound 33]
Plant response rating, Galium ([12]; 125 g ai/ha): 70 | Plant response rating, Galium ([12]; 500 g ai/ha): 80
